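Method: 48-hour compound exposure of cells in 96-well plates, five concentrations, linear interpolation of endpoints. TGI marks complete inhibition of growth.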
Legend:
Assay in all cases: inhibition of tumour cell growth, NCI panel, 48 h
HCT-15 colon = tested on: HCT-15 colon
A498 renal = tested on: A498 renal
SK-MEL-2 melanoma = tested on: SK-MEL-2 melanoma
786-0 renal = tested on: 786-0 renal
MDA-N = tested on: MDA-N
UACC-62 melanoma = tested on: UACC-62 melanoma
NCI-H226 lung = tested on: NCI-H226 lung
HOP-62 NSCLC = tested on: HOP-62 NSCLC
MOLT-4 leukemia = tested on: MOLT-4 leukemia
SK-MEL-28 melanoma = tested on: SK-MEL-28 melanoma
SNB-75 CNS = tested on: SNB-75 CNS
OVCAR-5 ovarian = tested on: OVCAR-5 ovarian
MDA-MB-435 = tested on: MDA-MB-435
ACHN renal = tested on: ACHN renal
RXF 393 renal = tested on: RXF 393 renal
U251 CNS = tested on: U251 CNS
DU-145 prostate = tested on: DU-145 prostate
HT29 colon = tested on: HT29 colon
LOX IMVI melanoma = tested on: LOX IMVI melanoma
UACC-257 melanoma = tested on: UACC-257 melanoma
K-562 leukemia = tested on: K-562 leukemia
MALME-3M melanoma = tested on: MALME-3M melanoma
HOP-92 NSCLC = tested on: HOP-92 NSCLC
SW-620 colon = tested on: SW-620 colon
NCI-H460 lung = tested on: NCI-H460 lung
OVCAR-8 ovarian = tested on: OVCAR-8 ovarian
UO-31 renal = tested on: UO-31 renal
HS 578T breast = tested on: HS 578T breast
A549 NSCLC = tested on: A549 NSCLC
PC-3 prostate = tested on: PC-3 prostate
SR leukemia = tested on: SR leukemia
SF-295 CNS = tested on: SF-295 CNS
OVCAR-3 ovarian = tested on: OVCAR-3 ovarian
SF-268 CNS = tested on: SF-268 CNS
MDA-MB-231 breast = tested on: MDA-MB-231 breast
SN12C renal = tested on: SN12C renal
CCRF-CEM leukemia = tested on: CCRF-CEM leukemia
NCI-H23 lung = tested on: NCI-H23 lung
KM12 colon = tested on: KM12 colon
M14 melanoma = tested on: M14 melanoma
NCI/ADR-RES ovarian = tested on: NCI/ADR-RES ovarian
T-47D breast = tested on: T-47D breast
SNB-19 CNS = tested on: SNB-19 CNS
HCT-116 colon = tested on: HCT-116 colon
OVCAR-4 ovarian = tested on: OVCAR-4 ovarian
NCI-H522 lung = tested on: NCI-H522 lung
BT-549 breast = tested on: BT-549 breast
SK-MEL-5 melanoma = tested on: SK-MEL-5 melanoma
EKVX NSCLC = tested on: EKVX NSCLC
HCC-2998 colon = tested on: HCC-2998 colon
TK-10 renal = tested on: TK-10 renal
CAKI-1 renal = tested on: CAKI-1 renal
IGROV1 ovarian = tested on: IGROV1 ovarian
SK-OV-3 ovarian = tested on: SK-OV-3 ovarian
HL-60(TB) leukemia = tested on: HL-60(TB) leukemia
COLO 205 colon = tested on: COLO 205 colon
RPMI-8226 leukemia = tested on: RPMI-8226 leukemia
SF-539 CNS = tested on: SF-539 CNS

Measured: TGI

Cc1cccc(Cl)c1NCC(O)CN1CCN(C)CC1 (stereo not drawn)
> 100 µM: HCT-15 colon | A498 renal | SK-MEL-2 melanoma | 786-0 renal | MDA-N | UACC-62 melanoma | NCI-H226 lung | HOP-62 NSCLC | MOLT-4 leukemia | SK-MEL-28 melanoma | SNB-75 CNS | OVCAR-5 ovarian | MDA-MB-435 | ACHN renal | RXF 393 renal | U251 CNS | DU-145 prostate | HT29 colon | LOX IMVI melanoma | UACC-257 melanoma | K-562 leukemia | MALME-3M melanoma | HOP-92 NSCLC | SW-620 colon | NCI-H460 lung | OVCAR-8 ovarian | UO-31 renal | HS 578T breast | A549 NSCLC | PC-3 prostate | SR leukemia | SF-295 CNS | OVCAR-3 ovarian | SF-268 CNS | MDA-MB-231 breast | SN12C renal | CCRF-CEM leukemia | NCI-H23 lung | KM12 colon | M14 melanoma | NCI/ADR-RES ovarian | T-47D breast | SNB-19 CNS | HCT-116 colon | OVCAR-4 ovarian | NCI-H522 lung | BT-549 breast | SK-MEL-5 melanoma | EKVX NSCLC | HCC-2998 colon | TK-10 renal | CAKI-1 renal | IGROV1 ovarian

C=CCCON(C(=O)OC(C)(C)C)c1ccccc1
> 100 µM: HCT-15 colon | A498 renal | SK-MEL-2 melanoma | 786-0 renal | MDA-N | UACC-62 melanoma | SK-OV-3 ovarian | NCI-H226 lung | HOP-62 NSCLC | MOLT-4 leukemia | HL-60(TB) leukemia | SK-MEL-28 melanoma | SNB-75 CNS | OVCAR-5 ovarian | MDA-MB-435 | ACHN renal | RXF 393 renal | U251 CNS | DU-145 prostate | HT29 colon | LOX IMVI melanoma | UACC-257 melanoma | K-562 leukemia | MALME-3M melanoma | HOP-92 NSCLC | SW-620 colon | NCI-H460 lung | OVCAR-8 ovarian | COLO 205 colon | UO-31 renal | HS 578T breast | A549 NSCLC | PC-3 prostate | SF-295 CNS | OVCAR-3 ovarian | SF-268 CNS | MDA-MB-231 breast | SN12C renal | CCRF-CEM leukemia | NCI-H23 lung | KM12 colon | RPMI-8226 leukemia | M14 melanoma | NCI/ADR-RES ovarian | T-47D breast | SNB-19 CNS | HCT-116 colon | NCI-H522 lung | BT-549 breast | SK-MEL-5 melanoma | EKVX NSCLC | TK-10 renal | SF-539 CNS | CAKI-1 renal | IGROV1 ovarian
